Laboratory results as given in patent publication US6743789B2, “Substituted imidazo[1,5-a][1,2,4]triazolo[4,3-d][1,4]benzodiazepine derivatives” (Hoffmann-La Roche Inc., priority 2000, dated 2004).
Counter-ions that a name gives are not always drawn. Like-named read-outs stand apart in the source and are kept apart here.

Assays:
[1] = target: T1, rat GABA A receptor α3β3γ2 (Rattus norvegicus, UniProt P18508+P20236); test: [3H]flumazenil competition binding, GABA A α3β3γ2
T1 construct: expressed in transfected cells; host or cells: SF9 insect cells
Description: (§1) The affinity of compounds at GABA A receptor subtypes was measured by competition for [^3H]flumazenil (85 Ci/mmol; Amersham) binding to SF9 cells expressing rat receptors of composition α1β3γ2, α2β3γ2, α3β3γ2 and α5β3γ2.
(§2) Cellpellets were suspended in Krebs-tris buffer (4.8 mM KCl, 1.2 mM CaCl2, 1.2 mM MgCl2, 120 mM NaCl, 15 mM Tris; pH 7.5; binding assay buffer), homogenized by polytron for ca. 15 sec on ice and centrifuged in UZ for 30 min at 4° C. (100000 g; rotor: TFT 4594=300000 rpm). The cellpellets were resuspended in Krebs-tris buffer and homogenized by polytron for ca. 15 sec on ice. Aliquots of 1 ml were prepared, protein was measured (Bradford method) and the resulting membrane aliquots were stored at −70° C.
(§3) Radioligand binding assays were carried out in a volume of 200 μL (96-well plates) which contained 100 μL of cells, [^3H]flumazenil at a concentration of 1 nM for α1α2α3 subunits and 0.5 nM for α5 subunits and the test compound in the range of
(§4) 10^−10−3×10^−6 M. Nonspecific binding was defined by 10^−5 M diazepam and typically represented less than 5% of the total binding. Assays were incubated to equilibrium for 1 hour at 4° C. and harvested onto GF/C uni-filters (Packard) by filtration using a Packard harvester and washing with ice-cold wash buffer (50 mM Tris; pH 7.5). After drying, filter-retained radioactivity was detected by liquid scintillation counting. Ki values were calculated using Excel-Fit (Microsoft) and are the means of two determinations.

[2] = target: T2, rat GABA A receptor α5β3γ2 (Rattus norvegicus, UniProt P18508+P19969); test: [3H]flumazenil competition binding, GABA A α5β3γ2
T2 construct: expressed in transfected cells; host or cells: SF9 insect cells
Description: as §1, §2, §3, §4

[3] = target: T3, rat GABA A receptor α2β3γ2 (Rattus norvegicus, UniProt P18508+P23576); test: [3H]flumazenil competition binding, GABA A α2β3γ2
T3 construct: expressed in transfected cells; host or cells: SF9 insect cells
Description: as §1, §2, §3, §4

[4] = target: T4, rat GABA A receptor α1β3γ2 (Rattus norvegicus, UniProt P18508+P62813); test: [3H]flumazenil competition binding, GABA A α1β3γ2
T4 construct: expressed in transfected cells; host or cells: SF9 insect cells
Description: as §1, §2, §3, §4

[5] = McNamara and Skelton, Psychobiology 21:101-108; cited from earlier work
[6] = in vivo; cited from earlier work
[7] = [3H]flumazenil 1 nM, SF9 cells expressing rat α3β3γ2, mean of two determinations, read-out: Ki[nM] ra3
[8] = [3H]flumazenil 0.5 nM, SF9 cells expressing rat α5β3γ2, mean of two determinations, read-out: Ki[nM] ra5
[9] = [3H]flumazenil 1 nM, SF9 cells expressing rat α2β3γ2, mean of two determinations, read-out: Ki[nM] ra2
[10] = [3H]flumazenil 1 nM, SF9 cells expressing rat α1β3γ2, mean of two determinations, read-out: Ki[nM] ra1

Compound | Ki [1, 7] [nM] | Ki [2, 8] [nM] | Ki [3, 9] [nM] | Ki [4, 10] [nM] | melting point | Ki [1] [nM] | Ki [3] [nM] | Ki [4] [nM] | Ki [2] [nM] | spatial learning in the Morris watermaze [5] | proconvulsant or convulsant activity [6]
3-Chloro-10-(5-cyclopropyl-1,2,4-oxadiazol-3-yl)-7-(1H-indol-3-ylmethyl)-9H-imidazo[1,5-a][1,2,4]triazolo[4,3-d][1,4]benzodiazepine [Example 61] | 18.9 | 1.3 | 53 | 67.3 | – | – | – | – | – | – | –
CCOC(=O)c1ncn2c1Cn1c(Cc3ccncc3)nnc1-c1cc(Cl)ccc1-2 (as salt: hydrochloride) [Example 69, Ethyl 3-chloro-7-(pyridin-4-ylmethyl)-9H-imidazo[1,5-a][1,2,4]triazolo[4,3-d][1,4]-benzodiazepine-10-carboxylate] | – | – | – | – | 213 °C | – | – | – | – | – | –
CCOC(=O)c1ncn2c1Cn1cnnc1-c1cc(OC)ccc1-2 [Example 1, Ethyl 3-methoxy-9H-imidazo[1,5-a][1,2,4]triazolo[4,3-d][1,4]-benzodiazepine-10-carboxylate] | – | 1.3 | – | – | 197 °C | 39.2 | 57.6 | 30.6 | – | – | –
Cc1ccc2c(c1)-c1nncn1Cc1c(-c3nc(C4CC4)no3)ncn1-2 [Example 6, 10-(3-Cyclopropyl-1,2,4-oxadiazol-5-yl)-3-methyl-9H-imidazo[1,5-a][1,2,4]triazolo[4,3-d][1,4]benzodiazepine] | 149 | – | 362 | 408 | 253 to 256 °C | – | – | – | 10.8 | – | –
CCOC(=O)c1ncn2c1Cn1cnnc1-c1cc(Cl)ccc1-2 [Example 13, Ethyl 3-chloro-9H-imidazo[1,5-a][1,2,4]triazolo[4,3-d][1,4]benzodiazepine-10-carboxylate] | – | 1.2 | – | – | 226 to 227 °C | 23.7 | 55.5 | 34.9 | – | – | –
CCOC(=O)c1ncn2c1Cn1c(C)nnc1-c1cc(OC)ccc1-2 [Example 19, Ethyl 3-methoxy-7-methyl-9H-imidazo[1,5-a][1,2,4]triazolo[4,3-d][1,4]-benzodiazepine-10-carboxylate] | – | 14.5 | – | – | 210 °C | 482 | 500 | 481 | – | – | –
CCOC(=O)c1ncn2c1Cn1c(CO)nnc1-c1cc(OC)ccc1-2 [Example 25, Ethyl 7-hydroxymethyl-3-methoxy-9H-imidazo[1,5-a][1,2,4]triazolo[4,3-d][1,4]-benzodiazepine-10-carboxylate] | 107 | – | 123 | – | 255 °C | – | – | 95.3 | 5.9 | – | –
CCOC(=O)c1ncn2c1Cn1c(Cc3c[nH]c4c(OC)cccc34)nnc1-c1cc(OC)ccc1-2 [Example 37, Ethyl 3-methoxy-7-[(7-methoxy-1H-indol-3-yl)methyl]-9H-imidazo[1,5-a][1,2,4]triazolo[4,3-d][1,4]-benzodiazepine-10-carboxylate] | 162 | 8.2 | 266 | 296 | – | – | – | – | – | – | –
CCOC(=O)c1ncn2c1Cn1c(Cc3c[nH]c4ccccc34)nnc1-c1cc(Br)ccc1-2 [Example 47, Ethyl 3-bromo-7-(1H-indol-3-ylmethyl)-9H-imidazo[1,5-a][1,2,4]triazolo[4,3-d][1,4]-benzodiazepine-10-carboxylate] | 100 | – | 225 | 694 | 258 °C (dec.) | – | – | – | 13.1 | – | –
CCOC(=O)c1ncn2c1Cn1c(Cc3cccc(OC)c3)nnc1-c1cc(Br)ccc1-2 [Example 50, Ethyl 3-bromo-7-(3-methoxy-benzyl)-9H-imidazo[1,5-a][1,2,4]triazolo[4,3-d][1,4]-benzodiazepine-10-carboxylate] | 220 | – | 409 | 1000 | 111 to 113 °C | – | – | – | 14.4 | – | –
CCOC(=O)c1ncn2c1Cn1c(Cc3ccc(-c4ccccc4)cc3)nnc1-c1cc(OC)ccc1-2 [Example 54, Ethyl 3-methoxy-7-[(biphenyl-4-yl)methyl]-9H-imidazo[1,5-a][1,2,4]triazolo[4,3-d][1,4]-benzodiazepine-10-carboxylate] | 108 | – | 148 | – | – | – | – | 64.6 | 12.9 | – | –
Clc1ccc2c(c1)-c1nnc(Cc3ccccc3)n1Cc1c(-c3noc(C4CC4)n3)ncn1-2 [Example 63, 7-Benzyl-3-chloro-10-(5-cyclopropyl-1,2,4-oxadiazol-3-yl)-9H-imidazo[1,5-a][1,2,4]triazolo[4,3-d][1,4]benzodiazepine] | – | 0.6 | – | – | – | 5.6 | 10.7 | 12.5 | – | – | –
CCOC(=O)c1ncn2c1Cn1c(Cc3ccncc3)nnc1-c1cc(Cl)ccc1-2 [Example 69, Ethyl 3-chloro-7-(pyridin-4-ylmethyl)-9H-imidazo[1,5-a][1,2,4]triazolo[4,3-d][1,4]-benzodiazepine-10-carboxylate] | 158 | – | 308 | 360 | – | – | – | – | 7 | – | –
COC(=O)c1cc2c(cn1)[nH]c1ccccc12 [β-CCM] | – | – | – | – | – | – | – | – | – | enhance spatial learning | proconvulsant or convulsant
Ethyl 3-methoxy-7-(1H-indol-3-ylmethyl)-9H-imidazo[1,5-a][1,2,4]triazolo[4,3-d][1,4]-benzodiazepine-10-carboxylate [Example 20] | 191 | 10.7 | 284 | 803 | – | – | – | – | – | – | –
